Measurements reported in ChEMBL document CHEMBL1146892, “Pyrrolidine bis-cyclic guanidines with antimicrobial activity against drug-resistant Gram-positive pathogens identified from a mixture-based combinatorial library” (2006).
In brackets after ≈: the same amount, converted by molar mass.

Columns and labels:
Format in all cases: functional
Staphylococcus aureus = assay: Antibacterial activity against methicillin-resistant Staphylococcus aureus ATCC 33591
Escherichia coli = assay: Antibacterial activity against Escherichia coli ATCC 25922
Enterococcus faecalis = assay: Antibacterial activity against vancomycin-resistant Enterococcus faecalis ATCC 51299

| Compound | MBC (Staphylococcus aureus) [µg/mL] | MIC (Staphylococcus aureus) [µg/mL] | MBC (Escherichia coli) [µg/mL] | MIC (Escherichia coli) [µg/mL] | MBC (Enterococcus faecalis) [µg/mL] | MIC (Enterococcus faecalis) [µg/mL] |
| --- | --- | --- | --- | --- | --- | --- |
| CC(C)Cc1ccc(C(C)CN2C(=N)N([C@H](Cc3ccc4ccccc4c3)CN3CCCC3CN3C(N)=NC[C@@H]3Cc3ccccc3)C[C@@H]2CC2CCCCC2)cc1 (some centres not stated) | < 2.5 | < 2.5 | > 10 | > 10 | > 10 | < 2.5 |
| CC(C)Cc1ccc(C(C)CN2C(=N)N([C@H](CC3CCCCC3)CN3CCCC3CN3C(N)=NC[C@@H]3Cc3ccccc3)C[C@H]2CC2CCCCC2)cc1 (some centres not stated) | < 2.5 | < 2.5 | 5 (≈ 6.79 µM) | 5 (≈ 6.79 µM) | > 10 | 2.5 (≈ 3.4 µM) |
| CCCC[C@@H]1CN([C@H](CC2CCCCC2)CN2CCCC2CN2C(N)=NC[C@@H]2C)C(=N)N1CC(C)c1ccc(CC(C)C)cc1 (some centres not stated) | 2.5 (≈ 4.03 µM) | < 2.5 | > 10 | > 10 | > 10 | < 2.5 |
| CC(C)Cc1ccc(C(C)CN2C(=N)N([C@@H](CC3CCCCC3)CN3CCCC3CN3C(N)=NC[C@@H]3Cc3ccccc3)C[C@@H]2CC2CCCCC2)cc1 (some centres not stated) | < 2.5 | < 2.5 | > 10 | > 10 | < 2.5 | < 2.5 |
| C[C@H]1CN=C(N)N1CC1CCCN1C[C@@H](CC1CCCCC1)N1C[C@H](CC2CCCCC2)N(CCc2cc(C(F)(F)F)cc(C(F)(F)F)c2)C1=N (some centres not stated) | 2.5 (≈ 3.44 µM) | < 2.5 | 5 (≈ 6.89 µM) | 5 (≈ 6.89 µM) | 2.5 (≈ 3.44 µM) | < 2.5 |
| CC(C)Cc1ccc(C(C)CN2C(=N)N([C@H](CC3CCCCC3)CN3CCCC3CN3C(N)=NC[C@@H]3C)C[C@H]2CC2CCCCC2)cc1 (some centres not stated) | 2.5 (≈ 3.79 µM) | < 2.5 | 5 (≈ 7.58 µM) | 5 (≈ 7.58 µM) | < 2.5 | < 2.5 |
| CC(C)Cc1ccc(C(C)CN2C(=N)N([C@H](Cc3ccc4ccccc4c3)CN3CCCC3CN3C(N)=NC[C@@H]3C)C[C@H]2CC2CCCCC2)cc1 (some centres not stated) | < 2.5 | < 2.5 | > 10 | > 10 | < 2.5 | < 2.5 |
| C[C@H]1CN=C(N)N1CC1CCCN1C[C@@H](Cc1ccc2ccccc2c1)N1C[C@@H](CC2CCCCC2)N(CCc2cc(C(F)(F)F)cc(C(F)(F)F)c2)C1=N (some centres not stated) | < 2.5 | < 2.5 | > 10 | > 10 | < 2.5 | < 2.5 |
| CC(C)Cc1ccc(C(C)CN2C(=N)N([C@H](CC3CCCCC3)CN3CCCC3CN3C(N)=NC[C@@H]3C)C[C@@H]2CC2CCCCC2)cc1 (some centres not stated) | < 2.5 | < 2.5 | 5 (≈ 7.58 µM) | 5 (≈ 7.58 µM) | > 10 | < 2.5 |
| CC(C)Cc1ccc(C(C)CN2C(=N)N([C@@H](CC3CCCCC3)CN3CCCC3CN3C(N)=NC[C@@H]3C)C[C@H]2CC2CCCCC2)cc1 (some centres not stated) | < 2.5 | < 2.5 | > 10 | > 10 | > 10 | < 2.5 |
| N=C1N(CCc2cc(C(F)(F)F)cc(C(F)(F)F)c2)[C@H](CC2CCCCC2)CN1[C@H](Cc1ccc2ccccc2c1)CN1CCCC1CN1C(N)=NC[C@@H]1Cc1ccccc1 (some centres not stated) | 2.5 (≈ 2.96 µM) | < 2.5 | > 10 | > 10 | > 10 | < 2.5 |
| CC(C)Cc1ccc(C(C)CN2C(=N)N([C@@H](CC3CCCCC3)CN3CCCC3CN3C(N)=NC[C@@H]3Cc3ccccc3)C[C@H]2CC2CCCCC2)cc1 (some centres not stated) | < 2.5 | < 2.5 | > 10 | > 10 | < 2.5 | < 2.5 |
| N=C1N(CCc2cc(C(F)(F)F)cc(C(F)(F)F)c2)[C@@H](CC2CCCCC2)CN1[C@@H](CC1CCCCC1)CN1CCCC1CN1C(N)=NC[C@@H]1Cc1ccccc1 (some centres not stated) | < 2.5 | < 2.5 | > 10 | > 10 | > 10 | < 2.5 |
| CC(C)Cc1ccc(C(C)CN2C(=N)N([C@H](Cc3ccc4ccccc4c3)CN3CCCC3CN3C(N)=NC[C@@H]3Cc3ccccc3)C[C@H]2CC2CCCCC2)cc1 (some centres not stated) | 2.5 (≈ 3.2 µM) | < 2.5 | > 10 | > 10 | > 10 | < 2.5 |
| N=C1N(CCc2cc(C(F)(F)F)cc(C(F)(F)F)c2)[C@H](CC2CCCCC2)CN1[C@@H](CC1CCCCC1)CN1CCCC1CN1C(N)=NC[C@@H]1Cc1ccccc1 (some centres not stated) | < 2.5 | < 2.5 | 5 (≈ 6.23 µM) | 5 (≈ 6.23 µM) | < 2.5 | < 2.5 |
| C[C@H]1CN=C(N)N1CC1CCCN1C[C@H](CC1CCCCC1)N1C[C@@H](CC2CCCCC2)N(CCc2cc(C(F)(F)F)cc(C(F)(F)F)c2)C1=N (some centres not stated) | < 2.5 | < 2.5 | > 10 | > 10 | > 10 | < 2.5 |
| CCCC[C@@H]1CN([C@@H](CC2CCCCC2)CN2CCCC2CN2C(N)=NC[C@@H]2Cc2ccccc2)C(=N)N1CCc1cc(C(F)(F)F)cc(C(F)(F)F)c1 (some centres not stated) | < 2.5 | < 2.5 | > 10 | > 10 | < 2.5 | < 2.5 |
